Values of other authors in US10105415B2, “Compositions comprising granulocyte-macrophage colony-stimulating factor for the treatment of inflammatory bowel disease” (priority 2014, dated 2018).

Key:
[1] = not given; remark: listed apart in the source
[2] = given orally
[3] = oral / local
[4] = adverse effect frequency
Pseudomonas aeruginosa = conditions: controlled clinical trials
[5] = system: strains of organisms from the susceptible genera
[6] = system: polymorphonuclear leukocytes
[7] = system: resistant bacterial strains; conditions: controlled clinical trials, oral or intravenous
Crohn's disease = conditions: systemic (intravenous or subcutaneous), CD patients
[8] = given subcutaneously or infused intravenously for systemic effect

| Compound | solubility in water [1] | bioavailability [2] | tolerability / irritation [3] | pH of 5% solution | other results |
| --- | --- | --- | --- | --- | --- |
| C[C@@H]1O[C@@H]1P(=O)(O)O [Fosfomycin calcium monohydrate] | sparingly soluble in water | ≥ 12% | less irritating to the stomach |  | pH of 0.4% solution (0.4% solution): 8.1-9.6 |
| C[C@@H]1O[C@@H]1P(=O)(O)O [Fosfomycin disodium] | highly soluble in water | high bioavailability | locally irritant if un-neutralized | 9.0-10.5 |  |
| C[C@@H]1O[C@@H]1P(=O)(O)O.NC(CO)(CO)CO [Fosfomycin trometamol] | highly soluble in water | about 40% | well tolerated | 3.5-5.5 |  |
| C[C@@H]1O[C@@H]1P(=O)(O)O [Fosfomycin, [(2R,3S)-3-methyloxiran-2-yl]phosphonic acid] |  |  |  |  | eosinophilia [4]: 0.2%; transient rashes (evidence of allergy) [4]: 0.3 % of cases; transiently raised liver enzymes [4]: 0.3 % of cases; appearance of resistant bacterial strains, maximum (Pseudomonas aeruginosa): ≤ 15%; synergistic effect, share of tested strains ([5]; early studies, various antibiotic combinations): 70-100%; synergy rates ([5]; subsequent more extensive studies): 36-74%; concentration in polymorphonuclear leukocytes relative to extracellular fluid [6]: twice; appearance of resistant bacterial strains, overall [7]: 3.0% |
| GM-CSF: Monomeric glycoprotein of 127 amino-acid residues (SEQ ID NO: 2), colony-stimulating factor; recombinant forms regramostim, sargramostim, molgramostim |  |  |  |  | primary therapeutic endpoints (Crohn's disease): failed to achieve their primary therapeutic endpoints; plasma concentrations achieved [8]: > 1 ng/mL |
